# Tests used:
# Assay type in all cases: cell-based, human
# [1] = system: RPS27L mRNA; experiment: RT-PCR of RPS27L mRNA after drug treatment of HCT116 cells; details: p53 wild-type HCT116 cells; ADR (1 μM) or 5-FU (375 μM); not in p53 null cells
# Description: FIG. 1A depicts the microarray analysis showing a set of genes whose expression was induced by the DNA damaging agents adriamycin (ADR) and 5-fluorouracil (5-FU) in p53 wild-type HCT116 cells (human colorectal carcinoma cell line containing wild type p53) but not in the p53 null counterpart. In both treatments, RPS27L, together with bona fide p53 targets such as cdkn1a (encodes p21), Pmaid (encodes Noxa) and ccd3 (encodes Puma), was unregulated in a p53-dependent manner. To validate the microarray data, RT-PCR analysis was performed (FIG. 1B).
# The human colon carcinoma cell line HCT116 and its p53 knock-out derivate cells were kindly provided by Dr. Bert Vogelstein. HCT116 cells can also be purchased under the ATCC number: CCL 247. The human osteosarcoma cell lines U2OS and Saos-2 can be purchased under the following ATCC numbers: U2OS, ATCC HTB-96; Saos-2, ATCC HTB-85 and SH-SY5Y, ATCC CRL-2266. Cells were grown in DMEM supplemented with 10% fetal bovine serum and penicillin-streptomycin (Invitrogen). Adriamycin, etoposide phosphate (VP16®) and 5-fluorouracil were purchased from Sigma-Aldrich.
# All RT-PCR was performed using the Titanium One Step RT-PCR Kit (BD Clontech).
# [2] = system: HCT116 cells; experiment: Cell cycle and apoptosis analysis by flow cytometry (sub-G1 DNA content)
# Protocol: (§1) Cells cycle analysis was performed by DNA content quantification. The cells were fixed with 70% ethanol and stained with propidium iodide (50 μg/ml) staining. The stained cells were analyzed by FACScalibur (BD Bioscience). For the BrdU incorporation assay and mitochondrial membrane potential detection, the BrdU Flow Kit and JC-1 staining kit (both from BD Bioscience) were used, respectively, following the instruction manual. Stained cells were analyzed by FACScalibur (BD Bioscience) and quantified by using CellQuest software (BD Bioscience).
# [3] = system: p21; experiment: Immunoblot of p21 in U2OS cells with transient RPS27L knockdown; details: RPS27L knocked down by transient transfection, ADR (1 μM) 24 hours
# Protocol: As RPS27L depletion sensitizes only p53 wild-type cells to DNA damage, the inventors next assessed the effect of RPS27L loss on p53 signaling pathway. The effects of RPS27L depletion on p53 and its downstream targets p21, puma and MDM2 was examined by immunoblot analysis. […] By contrast, p53-dependent activation of Puma and MDM2 were not decreased upon RPS27L loss.
# (§2) Cells were harvested and lysed with RIPA buffer (50 mM Tris-HCl, pH7.4, 1 mM EDTA, 150 mM NaCl, 1% Nonidet P-40, 0.5% sodium deoxycholate and proteinase inhibitors). The lysates were clarified by centrifugation at 16,000×g for 15 minutes at 4° C. Protein concentrations were determined with the Bradford Protein Assay Kit (Bio-Rad). 20-50 μg protein samples were separated by SDS-PAGE, transferred onto an Immobilon membrane (Millipore) and blotted with antibodies. Anti-p53 and anti-p21 antibodies were from Santa Cruz; anti-MDM2 and anti-Puma antibodies were from Merck. The rabbit polyconal antibody to RPS27L was raised against a 14 amino acid peptide from human RPS27L (SEQ ID NO: 2: LHPSLEEEKKKHKK).
# [4] = system: p53 and p21; experiment: Western blot of p53 and p21 protein levels in HCT116 cells; details: ADR (1 μM), 5-FU (375 μM), nutlin-3 (10 μM)
# Protocol: (§3) To investigate whether the p53-induced increase in RPS27L mRNA also gives rise to the increased protein levels, immunoblot analysis of p53 wild-type and p53 null HCT116 cells treated with ADR, 5-FU or nutlin-3, a small molecule MDM2 antagonist that directly activates p53 (Vassilev, L. T., Vu, B. T., et al. (2004) “In vivo activation of the p53 pathway by small-molecule antagonists of MDM2” Science, vol. 303, p. 844-848) was performed. […] To extend this observations to other cell lines and to other p53 stimuli, U2OS (human osteosarcoma cell line) and SH-SY5Y (human neuroblastoma cell line) cells (p53 wild type) as well as Saos-2 cells (human osteosarcoma cell line, p53-deficient) were treated with ADR, etoposide phosphate (VP16®) and 5-FU (FIG. 2B). […] Obviously, 5-FU treatment activates a posttranslational mechanism that causes RPS27L protein downregulation in spite of the increased mRNA expression.
# as §2
# [5] = system: HCT116 cells; experiment: BrdU incorporation / 7-amino-actinomycin D FACS analysis; details: for cells with a hyperploid DNA content (>4.v): ADR 24 hours
# Protocol: Given the increased sensitivity to DNA damage upon RPS27L depletion, the inventors next investigated whether loss of RPS27L could impair the DNA damage checkpoint. […] However, parental cells underwent a dramatic decrease in DNA synthesis (from 85% to 11%) 24 hours after ADR treatment, whereas in HCT116 cells lacking RPS27L, this decrease in DNA synthesis was partially rescued (from 86% to 27%) (FIG. 5A).
# as §1
# [6] = system: RPS27L protein; experiment: Western blot of RPS27L protein in U2OS, SH-SY5Y and Saos-2 cells; details: U2OS and SH-SY5Y (p53 wild type), Saos-2 (p53-deficient); VP16 (10 μM), ADR (1 μM), 5-FU (375 μM)
# Protocol: as §3, §2
structure (smiles),measurement,setting,value
"COc1cccc2c1C(=O)c1c(O)c3c(c(O)c1C2=O)C[C@@](O)(C(=O)CO)C[C@@H]3O[C@H]1C[C@H](N)[C@H](O)[C@H](C)O1 [ADR, adriamycin]",RPS27L mRNA,[1],induced
same,cell cycle and apoptosis response,"[2]; HCT116 p53+/+ and p53−/−, ADR (1 μM) or 5-FU (375 μM) for 48 h",p53-dependent cell cycle arrest
same,cell death (sub-G1 DNA content),"[2]; RPS27L depletion in p53 null HCT116 cells, ADR 48 h",did not give rise to the same result
same,cellular response,"[2]; p53 wild-type HCT116 expressing control shRNA, ADR 48 h",growth arrest response
same,p21 protein level,[3],substantial decrease
same,p53 and p21 protein,[4],accumulation of p53 and p21
same,"DNA synthesis (BrdU, cells in S-phase)","[5]; HCT116 cells lacking RPS27L, 24 hours after ADR treatment (86% before)",27%
same,cells with a hyperploid DNA content (>4.v),[5]; RPS27L-depleted HCT116 cells,30%
same,cells with a hyperploid DNA content (>4.v),[5]; control HCT116 cells,10.5%
same,hyperploid population,[5]; p21-depleted HCT116 cells after ADR treatment,no increased hyperploid population
same,"DNA synthesis (BrdU, cells in S-phase)","[5]; parental (control) HCT116 cells, 24 hours after ADR treatment (85% before)",11%
same,RPS27L protein level,[6],p53-dependent upregulation of RPS27L protein
